Data published in patent publication US11180504B2 (ORCHID PHARMA LTD., priority 2016, dated 2021).
≈ marks a conversion by molar mass, not a printed value.

Experiments:
[1] = system: methicillin-sensitive Staphylococcus aureus; test: MIC by broth micro-dilution (CLSI), methicillin-sensitive S. aureus; format: cell-based; settings: Staphylococcus aureus, ATCC 29213 / MSSA, MSSA S. aureus ATCC29213; read-out: MIC
[2] = system: carbapenem sensitive Escherichia coli; test: MIC by broth micro-dilution (CLSI), carbapenem sensitive E. coli; format: cell-based; settings: Escherichia coli, ATCC25922, ESBL −ve E. coli ATCC25922; read-out: MIC
[3] = system: carbapenemase producing K. pneumoniae; test: MIC by broth micro-dilution (CLSI), carbapenemase producing K. pneumoniae; format: cell-based, Klebsiella pneumoniae; settings: Klebsiella pneumoniae, ATCCBAA1705, KPC-2 K. pneumoniae ATCC BAA-1705; read-out: MIC
[4] = system: carbapenem sensitive Pseudomonas aeruginosa; test: MIC by broth micro-dilution (CLSI), carbapenem sensitive P. aeruginosa; format: cell-based; settings: Pseudomonas aeruginosa, ATCC27853, Meropenem susceptible P. aeruginosa ATCC27853; read-out: MIC

| MIC [1] [µg/mL] | MIC [2] [µg/mL] | MIC [3] [µg/mL] | MIC [4] [µg/mL] | SMILES |
| --- | --- | --- | --- | --- |
| 4 (≈ 7.28 µM) | 0.125 (≈ 0.227 µM) | 1 (≈ 1.82 µM) | 1 (≈ 1.82 µM) | C[C@@H](NC(=O)Cn1cnnn1)[C@H]1C(=O)N2C(C(=O)O)=C(S[C@@H]3CN[C@H](C(=O)N4C[C@@H](N)[C@@H](O)C4)C3)[C@H](C)[C@H]12 [Example 400, (4R,5S,6R)-6-((R)-1-(2-(1H-tetrazol-1-yl)acetamido)ethyl)-3-((3S,5S)-5-((3R,4S)-3-amino-4-hydroxypyrrolidine-1-carbonyl)pyrrolidin-3-ylthio)-4-methyl-7-oxo-1-azabicyclo[3.2.0]hept-2-ene-2-carboxylic acid] |
| 1 (≈ 1.85 µM) | 0.06 (≈ 0.111 µM) | 1 (≈ 1.85 µM) | 32 (≈ 59.1 µM) | C[C@@H](NC(=O)Cn1cnnn1)[C@H]1C(=O)N2C(C(=O)O)=C(S[C@@H]3CN[C@H](C(=O)Nc4ccncc4)C3)[C@H](C)[C@H]12 [Example 402, (4R,5S,6R)-6-((R)-1-(2-(1H-tetrazol-1-yl)acetamido)ethyl)-4-methyl-7-oxo-3-((3S,5S)-5-(pyridin-4-ylcarbamoyl)pyrrolidin-3-ylthio)-1-azabicyclo[3.2.0]hept-2-ene-2-carboxylic acid] |
| 4 (≈ 7.5 µM) | 0.125 (≈ 0.234 µM) | 2 (≈ 3.75 µM) | 4 (≈ 7.5 µM) | C[C@@H](NC(=O)Cn1cnnn1)[C@H]1C(=O)N2C(C(=O)O)=C(S[C@@H]3CN[C@H](C(=O)N4CC(C)(N)C4)C3)[C@H](C)[C@H]12 [Example 405, (4R,5S,6R)-6-((R)-1-(2-(1H-tetrazol-1-yl)acetamido)ethyl)-3-((3S,5S)-5-(3-amino-3-methylazetidine-1-carbonyl)pyrrolidin-3-ylthio)-4-methyl-7-oxo-1-azabicyclo[3.2.0]hept-2-ene-2-carboxylic acid] |
| 4 (≈ 6.49 µM) | 1 (≈ 1.62 µM) | 2 (≈ 3.24 µM) | 4 (≈ 6.49 µM) | C[C@@H](NC(=O)Cn1cnnn1)[C@H]1C(=O)N2C(C(=O)O)=C(S[C@@H]3CN[C@H](C(=O)N4CCC(N5CC[C@@H](N)C5)CC4)C3)[C@H](C)[C@H]12 [Example 409, (4R,5S,6R)-6-((R)-1-(2-(1H-tetrazol-1-yl)acetamido)ethyl)-3-((3S,5S)-5-(4-((R)-3-aminopyrrolidin-1-yl)piperidine-1-carbonyl)pyrrolidin-3-ylthio)-4-methyl-7-oxo-1-azabicyclo[3.2.0]hept-2-ene-2-carboxylic acid] |

More lines, now with the values behind:

| SMILES | MIC [1] [µg/mL] | MIC [2] [µg/mL] | MIC [3] [µg/mL] | MIC [4] [µg/mL] |
| --- | --- | --- | --- | --- |
| C[C@@H](NC(=O)Cn1cnnn1)[C@H]1C(=O)N2C(C(=O)O)=C(S[C@@H]3CN[C@H](C(=O)N4CC[C@@H](NC(=O)CN)C4)C3)[C@H](C)[C@H]12 [Example 398, (4R,5S,6R)-6-((R)-1-(2-(1H-tetrazol-1-yl)acetamido)ethyl)-3-((3S,5S)-5-((R)-3-(2-aminoacetamido)pyrrolidine-1-carbonyl)pyrrolidin-3-ylthio)-4-methyl-7-oxo-1-azabicyclo[3.2.0]hept-2-ene-2-carboxylic acid] | 4 (≈ 6.77 µM) | 0.25 (≈ 0.423 µM) | 1 (≈ 1.69 µM) | 2 (≈ 3.39 µM) |
| C[C@@H](NC(=O)Cn1cnnn1)[C@H]1C(=O)N2C(C(=O)O)=C(S[C@@H]3CN[C@H](C(=O)N4CC[C@@H](NC(=N)N)C4)C3)[C@H](C)[C@H]12 [Example 399, (4R,5S,6R)-6-((R)-1-(2-(1H-tetrazol-1-yl)acetamido)ethyl)-3-((3S,5S)-5-((R)-3-guanidinopyrrolidine-1-carbonyl)pyrrolidin-3-ylthio)-4-methyl-7-oxo-1-azabicyclo[3.2.0]hept-2-ene-2-carboxylic acid] | 2 (≈ 3.47 µM) | 0.125 (≈ 0.217 µM) | 2 (≈ 3.47 µM) | 8 (≈ 13.9 µM) |
| C[C@@H](NC(=O)Cn1cnnn1)[C@H]1C(=O)N2C(C(=O)O)=C(S[C@@H]3CN[C@H](C(=O)N4CC[C@@H](NCCN)C4)C3)[C@H](C)[C@H]12 [Example 401, (4R,5S,6R)-6-((R)-1-(2-(1H-tetrazol-1-yl)acetamido)ethyl)-3-((3S,5S)-5-((R)-3-(2-aminoethylamino)pyrrolidine-1-carbonyl)pyrrolidin-3-ylthio)-4-methyl-7-oxo-1-azabicyclo[3.2.0]hept-2-ene-2-carboxylic acid] | 8 (≈ 13.9 µM) | 0.5 (≈ 0.867 µM) | 2 (≈ 3.47 µM) | 2 (≈ 3.47 µM) |
| C[C@@H](NC(=O)Cn1nnnc1C(=O)O)[C@H]1C(=O)N2C(C(=O)O)=C(S[C@@H]3CN[C@H](C(=O)N4CC[C@@H](N)C4)C3)[C@H](C)[C@H]12 [Example 403, (4R,5S,6R)-3-((3S,5S)-5-((R)-3-aminopyrrolidine-1-carbonyl)pyrrolidin-3-ylthio)-6-((R)-1-(2-(5-carboxy-1H-tetrazol-1-yl)acetamido)ethyl)-4-methyl-7-oxo-1-azabicyclo[3.2.0]hept-2-ene-2-carboxylic acid] | 4 (≈ 6.92 µM) | 0.5 (≈ 0.866 µM) | 8 (≈ 13.8 µM) | 16 (≈ 27.7 µM) |
| C[C@@H](NC(=O)Cn1cnnn1)[C@H]1C(=O)N2C(C(=O)O)=C(S[C@@H]3CN[C@H](C(=O)N4CCC(CN)CC4)C3)[C@H](C)[C@H]12 [Example 404, (4R,5S,6R)-6-((R)-1-(2-(1H-tetrazol-1-yl)acetamido)ethyl)-3-((3S,5S)-5-(4-(aminomethyl)piperidine-1-carbanoyl)pyrrolidin-3-ylthio)-4-methyl-7-oxo-1-azabicyclo[3.2.0]hept-2-ene-2-carboxylic acid] | 1 (≈ 1.78 µM) | 0.25 (≈ 0.445 µM) | 0.5 (≈ 0.89 µM) | 1 (≈ 1.78 µM) |
| C[C@@H](NC(=O)Cn1cnnn1)[C@H]1C(=O)N2C(C(=O)O)=C(S[C@@H]3CN[C@H](C(=O)N4CCN([C@H]5CCNC5)CC4)C3)[C@H](C)[C@H]12 [Example 406, (4R,5S,6R)-6-((R)-1-(2-(1H-tetrazol-1-yl)acetamido)ethyl)-4-methyl-7-oxo-3-((3S,5S)-5-(4-((S)-pyrrolidin-3-yl]piperazine-1-carbonyl]pyrrolidin-3-ylthio)-1-azabicyclo[3.2.0]hept-2-ene-2-carboxylic acid] | 4 (≈ 6.64 µM) | 0.25 (≈ 0.415 µM) | 2 (≈ 3.32 µM) | 16 (≈ 26.5 µM) |
| C[C@@H](NC(=O)Cn1cnnn1)[C@H]1C(=O)N2C(C(=O)O)=C(SC3CNC3)[C@H](C)[C@H]12 [Example 407, (4R,5S,6R)-6-((R)-1-(2-(1H-tetrazol-1-yl)acetamido)ethyl)-3-(azetidin-3-ylthio)-4-methyl-7-oxo-1-azabicyclo[3.2.0]hept-2-ene-2-carboxylic acid] | 2 (≈ 4.91 µM) | 0.5 (≈ 1.23 µM) | 1 (≈ 2.45 µM) | 8 (≈ 19.6 µM) |
| C[C@@H](NC(=O)Cn1cnnn1)[C@H]1C(=O)N2C(C(=O)O)=C(S[C@@H]3CN[C@H](C(=O)N4CCN(C5CNC5)CC4)C3)[C@H](C)[C@H]12 [Example 408, (4R,5S,6R)-6-((R)-1-(2-(1H-tetrazol-1-yl)acetamido)ethyl)-3-((3S,5S)-5-(4-(azetidin-3-yl)piperazine-1-carbonyl)pyrrolidin-3-ylthio)-4-methyl-7-oxo-1-azabicyclo[3.2.0]hept-2-ene-2-carboxylic acid] | 4 (≈ 6.79 µM) | 1 (≈ 1.7 µM) | 2 (≈ 3.4 µM) | 2 (≈ 3.4 µM) |
